US20080033026A1, “Antimicrobial compositions, methods and systems” (priority 2006, published 2008)

Experiments:
Assay in all cases: MIC on Potato Dextrose Agar
Type in all cases: cell-based
Conditions in all cases: PDA agar, 25-30° C.
[1] = tested on: Aspergillus flavus (ATCC 5917)
Experimental: (§1) The efficacy of antimicrobial compositions in accordance with aspects of the invention against the following organisms was determined as follows. The following organisms were incubated in the presence of varying concentrations of 9-decenoic acid (9-DA) on an agar surface: Aspergillus parasiticus (ATCC 56857), Trichoderma virens (ATCC 9645), Aspergillus flavus (ATCC 96045), Cladosporium cladosporiodes (ATCC 16022), Aspergillus flavus (ATCC 5917), Aspergillus oryzae (ATCC 10124), Aspergillus parasiticus (ATCC 13539), Ulocladium atrum (ATCC 52426), Candida albicans (ATCC 11651), Aspergillus niger (ATCC 11414).
(§2) Fungal spores were hydrated in 0.1% Tween 80 and then plated onto Potato Dextrose Agar (PDA) (Difco # 213400; Becton, Dickinson and Company, Sparks, Md.) and incubated at 25-30° C. for six (6) days. The spores were washed from the surface with 5 ml of 0.1% Tween 80 and enumerated.
(§3) PDA plates were prepared according to the manufacturer's instructions through sterilization. The agar was tempered to approximately 50° C. and filter sterilized. Antimicrobial compositions containing 9-DA were added by percent weight to molten autoclaved PDA media, with consideration of specific gravity (0.915 g/mL for 9-DA) and purity (98% for 9-DA). The agar was thoroughly mixed and poured into sterile petri plates and allowed to solidify.
(§4) The agar plates were inoculated with the spore solution to achieve 10^2 spores/plate. The plates were incubated at 25-30° C. in Ziploc bags with a wet paper towel to keep the moisture level high. The plates were examined for growth at 1, 2, 3, 4, 8, 11, 15, 17, 23, 29 and 31 days. The percent coverage of growth on the agar surface was recorded at each sample point.

[2] = tested on: Candida albicans (ATCC 11651)
Experimental: as §1, §2, §3, §4

[3] = tested on: Ulocladium atrum (ATCC 52426)
Experimental: as §1, §2, §3, §4

[4] = tested on: Aspergillus flavus (ATCC 96045)
Experimental: as §1, §2, §3, §4

[5] = tested on: Aspergillus oryzae (ATCC 10124)
Experimental: as §1, §2, §3, §4

[6] = tested on: Aspergillus niger (ATCC 11414)
Experimental: as §1, §2, §3, §4

[7] = tested on: Cladosporium cladosporiodes (ATCC 16022)
Experimental: as §1, §2, §3, §4

[8] = tested on: Aspergillus parasiticus (ATCC 13539)
Experimental: as §1, §2, §3, §4

[9] = tested on: Aspergillus parasiticus (ATCC 56857)
Experimental: as §1, §2, §3, §4

[10] = tested on: Trichoderma virens (ATCC 9645)
Experimental: as §1, §2, §3, §4

`C=CCCCCCCCC(=O)O` [9-decenoic acid] was tested, and the MIC [1] was 0.05%, the MIC [2] was 0.025% and the MIC [3] was 0.025%. The MIC [4] was 0.05%, the MIC [5] was 0.05% and the MIC [6] was 0.05%. For the same compound, the MIC [7] was 0.025%, the MIC [8] was 0.05% and the MIC [9] was 0.05%. It also gave an MIC [10] of 0.05%.
